Converted amounts (≈) assume the structure as drawn.
Key:
Test in all cases: Broth microdilution MIC in CAMHB
Format in all cases: cell-based
[1] = system: A. baumannii ATCC 19606; details: Acinetobacter baumannii, ATCC19606; MHB; read-out: Minimum Inhibitory Concentration, A. baumannii ATCC 19606
How it was run: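 Per CLSI broth microdilution, colonies were grown 3-5 h at 37° C in cation-adjusted Mueller Hinton broth, then diluted to a starting inoculum of 2-8×10^5 CFU/mL against 2-fold serial compound dilutions. Plates were incubated 16-20 h at 37° C, and MIC was read visually as the lowest concentration with no growth.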

[2] = system: E. coli 901C; details: Escherichia coli; E. coli 901C (hyper-permeable); MHB; read-out: Minimum Inhibitory Concentration, E. coli 901C
How it was run: (§1)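 CLSI microdilution; CAMHB; inoculum 2-8×10^5 CFU/mL from 3-5 h 37° C culture; 2-fold compound series; 16-20 h, 37° C; MIC = lowest well without visible growth.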

[3] = system: E. coli AG100A; details: Escherichia coli, read-out: Minimum Inhibitory Concentration, E. coli AG100A
How it was run: as §1

[4] = system: E. coli AG100; details: Escherichia coli; E. coli AG100 (wild-type parent); MHB; read-out: Minimum Inhibitory Concentration, E. coli AG100
How it was run: as §1

[5] = system: E. coli ATCC 25922; details: Escherichia coli, ATCC25922; E. coli ATCC 25922; MHB; read-out: Minimum Inhibitory Concentration, E. coli 25922
How it was run: as §1

[6] = system: E. coli D22; details: Escherichia coli; E. coli D22 (hyper-permeable); MHB; read-out: Minimum Inhibitory Concentration, E. coli D22
How it was run: as §1

[7] = system: K. pneumoniae 848844 producing SHV-11 and KPC-2; details: Klebsiella pneumoniae, read-out: Minimum Inhibitory Concentration, K. pneumoniae 848844
How it was run: as §1

[8] = system: K. pneumoniae SI-117 producing VIM-1; details: Klebsiella pneumoniae, read-out: Minimum Inhibitory Concentration, K. pneumoniae SI-117
How it was run: as §1

[9] = system: K. pneumoniae UMM producing SHV-5 and KPC-2; details: Klebsiella pneumoniae, read-out: Minimum Inhibitory Concentration, K. pneumoniae UMM
How it was run: as §1

[10] = system: P. aeruginosa (ΔmexAB-oprM); details: Pseudomonas aeruginosa, read-out: Minimum Inhibitory Concentration, P. aeruginosa ΔmexAB-OprM
How it was run: as §1

[11] = system: P. aeruginosa ATCC 27853; details: Pseudomonas aeruginosa, ATCC27853; MHB; read-out: Minimum Inhibitory Concentration, P. aeruginosa ATCC 27853
How it was run: as §1

[12] = system: P. aeruginosa ATCC 35151; details: Pseudomonas aeruginosa, ATCC35151; MHB; hyper-permeable strain; read-out: Minimum Inhibitory Concentration, P. aeruginosa ATCC 35151
How it was run: as §1

In the case of CCN1CCN(C(=O)NC(C(=O)N[C@H]2Cc3cccc(C(=O)O)c3OB2O)c2cc(Cl)c(O)c(Cl)c2)C(=O)C1=O (stereo partly drawn) [Example 171, (3R)-3-(2-(3,5-dichloro-4-hydroxyphenyl)-2-(4-ethyl-2,3-dioxopiperazine-1-carboxamido)acetamido)-2-hydroxy-3,4-dihydro-2H-benzo[e][1,2]oxaborinine-8-carboxylic acid], the MIC [1] is reported as > 128 µg/mL, the MIC [2] is reported as < 0.25 µg/mL and the MIC [3] is reported as 2 to 4 µg/mL (≈ 3.37 to 6.74 µM). The MIC [4] was 32 to 64 µg/mL (≈ 53.9 to 108 µM), the MIC [5] was 32 to 64 µg/mL (≈ 53.9 to 108 µM) and the MIC [6] was 2 to 4 µg/mL (≈ 3.37 to 6.74 µM). The MIC [7] was > 128 µg/mL, the MIC [8] was > 128 µg/mL and the MIC [9] was 32 to 64 µg/mL (≈ 53.9 to 108 µM). The MIC [10] was 2 to 4 µg/mL (≈ 3.37 to 6.74 µM), the MIC [11] was > 128 µg/mL and the MIC [12] was < 0.25 µg/mL.

For CCN1CCN(C(=O)NC(C(=O)N[C@H]2Cc3cccc(C(=O)O)c3OB2O)c2cc(F)c(O)c(F)c2F)C(=O)C1=O (stereo partly drawn) [Example 172, (3R)-3-(2-(4-ethyl-2,3-dioxopiperazine-1-carboxamido)-2-(2,3,5-trifluoro-4-hydroxyphenyl)acetamido)-2-hydroxy-3,4-dihydro-2H-benzo[e][1,2]oxaborinine-8-carboxylic acid], the MIC [1] was > 128 µg/mL, the MIC [2] was < 0.25 µg/mL and the MIC [3] was 2 to 4 µg/mL (≈ 3.46 to 6.92 µM). It also gave an MIC [4] of 8 to 16 µg/mL (≈ 13.8 to 27.7 µM), an MIC [5] of 32 to 64 µg/mL (≈ 55.3 to 111 µM) and an MIC [6] of 2 to 4 µg/mL (≈ 3.46 to 6.92 µM). For the same molecule, the MIC [7] was > 128 µg/mL, the MIC [8] was > 128 µg/mL and the MIC [9] was 32 to 64 µg/mL (≈ 55.3 to 111 µM). The MIC [10] was 2 to 4 µg/mL (≈ 3.46 to 6.92 µM), the MIC [11] was > 128 µg/mL and the MIC [12] was < 0.25 µg/mL.

With CCN1CCN(C(=O)NC(C(=O)N[C@H]2Cc3cccc(C(=O)O)c3OB2O)c2ccc(O)c(F)c2F)C(=O)C1=O (stereo partly drawn) [Example 173] the MIC [1] was > 128 µg/mL, the MIC [2] was < 0.25 µg/mL and the MIC [3] was 2 to 4 µg/mL (≈ 3.57 to 7.14 µM). The MIC [4] was 8 to 16 µg/mL (≈ 14.3 to 28.6 µM), the MIC [5] was 8 to 16 µg/mL (≈ 14.3 to 28.6 µM) and the MIC [6] was 2 to 4 µg/mL (≈ 3.57 to 7.14 µM). For the same molecule, the MIC [7] was > 128 µg/mL, the MIC [8] was 32 to 64 µg/mL (≈ 57.1 to 114 µM) and the MIC [9] was 32 to 64 µg/mL (≈ 57.1 to 114 µM). The MIC [10] was 2 to 4 µg/mL (≈ 3.57 to 7.14 µM), the MIC [11] was > 128 µg/mL and the MIC [12] was 0.5 to 1 µg/mL (≈ 0.892 to 1.78 µM).

With NCCN1CCN(C(=O)NC(C(=O)N[C@H]2Cc3cccc(C(=O)O)c3OB2O)c2c(F)c(F)c(O)c(F)c2F)C(=O)C1=O (stereo partly drawn) [Example 174, (3R)-3-(2-(4-(2-aminoethyl)-2,3-dioxopiperazine-1-carboxamido)-2-(2,3,5,6-tetrafluoro-4-hydroxyphenyl)acetamido)-2-hydroxy-3,4-dihydro-2H-benzo[e][1,2]oxaborinine-8-carboxylic acid] the MIC [1] was > 128 µg/mL, the MIC [2] was 0.5 to 1 µg/mL (≈ 0.818 to 1.64 µM) and the MIC [3] was 2 to 4 µg/mL (≈ 3.27 to 6.54 µM). For the same molecule, the MIC [4] was 8 to 16 µg/mL (≈ 13.1 to 26.2 µM), the MIC [5] was 32 to 64 µg/mL (≈ 52.4 to 105 µM) and the MIC [6] was 2 to 4 µg/mL (≈ 3.27 to 6.54 µM). The MIC [7] was > 128 µg/mL, the MIC [8] was > 128 µg/mL and the MIC [9] was 32 to 64 µg/mL (≈ 52.4 to 105 µM). For the same molecule, the MIC [10] was 8 to 16 µg/mL (≈ 13.1 to 26.2 µM), the MIC [11] was > 128 µg/mL and the MIC [12] was 0.5 to 1 µg/mL (≈ 0.818 to 1.64 µM).

For CCN1CCN(C(=O)NC(C(=O)N[C@H]2Cc3cccc(C(=O)O)c3OB2O)c2c(F)c(F)c(O)c(F)c2F)C(=O)C1=O (stereo partly drawn) [Example 175, (3R)-3-(2-(4-ethyl-2,3-dioxopiperazine-1-carboxamido)-2-(2,3,5,6-tetrafluoro-4-hydroxyphenyl)acetamido)-2-hydroxy-3,4-dihydro-2H-benzo[e][1,2]oxaborinine-8-carboxylic acid], the MIC [1] was 32 to 64 µg/mL (≈ 53.7 to 107 µM), the MIC [2] was < 0.25 µg/mL and the MIC [3] was 2 to 4 µg/mL (≈ 3.35 to 6.71 µM). For the same molecule, the MIC [4] was 8 to 16 µg/mL (≈ 13.4 to 26.8 µM), the MIC [5] was 32 to 64 µg/mL (≈ 53.7 to 107 µM) and the MIC [6] was 2 to 4 µg/mL (≈ 3.35 to 6.71 µM). For the same molecule, the MIC [7] was > 128 µg/mL, the MIC [8] was > 128 µg/mL and the MIC [9] was 32 to 64 µg/mL (≈ 53.7 to 107 µM). For the same molecule, the MIC [10] was 8 to 16 µg/mL (≈ 13.4 to 26.8 µM), the MIC [11] was > 128 µg/mL and the MIC [12] was 0.5 to 1 µg/mL (≈ 0.839 to 1.68 µM).

For CCN1CCN(C(=O)NC(C(=O)N[C@H]2Cc3cccc(C(=O)O)c3OB2O)c2c(F)cc(NS(N)(=O)=O)cc2F)C(=O)C1=O (stereo partly drawn) [Example 176, (3R)-3-(2-(2,6-difluoro-4-(sulfamoylamino)phenyl)-2-(4-ethyl-2,3-dioxopiperazine-1-carboxamido)acetamido)-2-hydroxy-3,4-dihydro-2H-benzo[e][1,2]oxaborinine-8-carboxylic acid], the MIC [1] was > 128 µg/mL, the MIC [2] was < 0.25 µg/mL and the MIC [3] was 2 to 4 µg/mL (≈ 3.13 to 6.27 µM). It also gave an MIC [4] of 32 to 64 µg/mL (≈ 50.1 to 100 µM), an MIC [5] of 32 to 64 µg/mL (≈ 50.1 to 100 µM) and an MIC [6] of 2 to 4 µg/mL (≈ 3.13 to 6.27 µM). For the same molecule, the MIC [7] was > 128 µg/mL, the MIC [8] was > 128 µg/mL and the MIC [9] was 32 to 64 µg/mL (≈ 50.1 to 100 µM). The MIC [10] was 32 to 64 µg/mL (≈ 50.1 to 100 µM), the MIC [11] was > 128 µg/mL and the MIC [12] was 2 to 4 µg/mL (≈ 3.13 to 6.27 µM).

NCCN1CCN(C(=O)NC(C(=O)N[C@H]2Cc3cccc(C(=O)O)c3OB2O)c2c(F)cc(NS(N)(=O)=O)cc2F)C(=O)C1=O (stereo partly drawn) [Example 177, (3R)-3-(2-(4-(2-aminoethyl)-2,3-dioxopiperazine-1-carboxamido)-2-(2,6-difluoro-4-(sulfamoylamino)phenyl)acetamido)-2-hydroxy-3,4-dihydro-2H-benzo[e][1,2]oxaborinine-8-carboxylic acid] was tested, and the MIC [1] was > 128 µg/mL, the MIC [2] was 2 to 4 µg/mL (≈ 3.06 to 6.12 µM) and the MIC [3] was 8 to 16 µg/mL (≈ 12.2 to 24.5 µM). The MIC [4] was > 128 µg/mL, the MIC [5] was > 128 µg/mL and the MIC [6] was 32 to 64 µg/mL (≈ 49 to 98 µM). The MIC [7] was > 128 µg/mL, the MIC [8] was > 128 µg/mL and the MIC [9] was > 128 µg/mL. The MIC [10] was 32 to 64 µg/mL (≈ 49 to 98 µM), the MIC [11] was > 128 µg/mL and the MIC [12] was 2 to 4 µg/mL (≈ 3.06 to 6.12 µM).

NCCCN1CCN(C(=O)NC(C(=O)N[C@H]2Cc3ccc(F)c(C(=O)O)c3OB2O)c2c(F)cc(O)cc2F)C(=O)C1=O (stereo partly drawn) [Example 178, (3R)-3-(2-(4-(3-aminopropyl)-2,3-dioxopiperazine-1-carboxamido)-2-(2,6-difluoro-4-hydroxyphenyl)acetamido)-7-fluoro-2-hydroxy-3,4-dihydro-2H-benzo[e][1,2]oxaborinine-8-carboxylic acid] was tested, and the MIC [1] was > 128 µg/mL, the MIC [2] was 2 to 4 µg/mL (≈ 3.29 to 6.59 µM) and the MIC [3] was 8 to 16 µg/mL (≈ 13.2 to 26.3 µM). For the same molecule, the MIC [4] was 8 to 16 µg/mL (≈ 13.2 to 26.3 µM), the MIC [5] was 32 to 64 µg/mL (≈ 52.7 to 105 µM) and the MIC [6] was 2 to 4 µg/mL (≈ 3.29 to 6.59 µM). For the same molecule, the MIC [7] was 32 to 64 µg/mL (≈ 52.7 to 105 µM), the MIC [8] was 32 to 64 µg/mL (≈ 52.7 to 105 µM) and the MIC [9] was 8 to 16 µg/mL (≈ 13.2 to 26.3 µM). The MIC [10] was 8 to 16 µg/mL (≈ 13.2 to 26.3 µM), the MIC [11] was > 128 µg/mL and the MIC [12] was 0.5 to 1 µg/mL (≈ 0.823 to 1.65 µM).

With CCN1CCN(C(=O)NC(C(=O)N[C@H]2Cc3cccc(C(=O)O)c3OB2O)c2c(F)cc(N)cc2F)C(=O)C1=O (stereo partly drawn) [Example 181, (3R)-3-(2-(4-amino-2,6-difluorophenyl)-2-(4-ethyl-2,3-dioxopiperazine-1-carboxamido)acetamido)-2-hydroxy-3,4-dihydro-2H-benzo[e][1,2]oxaborinine-8-carboxylic acid] the MIC [1] was > 128 µg/mL, the MIC [2] was < 0.25 µg/mL and the MIC [3] was 2 to 4 µg/mL (≈ 3.58 to 7.15 µM). It also gave an MIC [4] of 32 to 64 µg/mL (≈ 57.2 to 114 µM), an MIC [5] of 32 to 64 µg/mL (≈ 57.2 to 114 µM) and an MIC [6] of 2 to 4 µg/mL (≈ 3.58 to 7.15 µM). For the same molecule, the MIC [7] was > 128 µg/mL, the MIC [8] was 32 to 64 µg/mL (≈ 57.2 to 114 µM) and the MIC [9] was 32 to 64 µg/mL (≈ 57.2 to 114 µM). The MIC [10] was 8 to 16 µg/mL (≈ 14.3 to 28.6 µM), the MIC [11] was > 128 µg/mL and the MIC [12] was 0.5 to 1 µg/mL (≈ 0.894 to 1.79 µM).
